Results published in patent US20050209193A1, “Method for enhanced photodynamic therapy” (priority 2003, published 2005).

Tests used:
[1] = tested on: skin of the subject; experiment: Determination of effective treatment time for PDT/IPL/RF rejuvenation therapy after ALA application; format: in vivo, human
Source text: ALA, was applied to the skin of the subject. The light used for PDT was IPL comprising a variety of wavelengths, with an intensity of 26 J. PDT/IPL/RF was applied at various time points following ALA application. […] The increase in efficacy leveled off at hours 5 and 6.
A 4-hour treatment with ALA was required for significant efficacy of PDT/IPL/RF. A time course of this length may be accompanied by increases in erythema and other side effects. In order to minimize side effects, it was determined that a 1-hour treatment was preferred. The 1-hour treatment requires repeated administrations for maximum efficacy, but prevents skin breakdown. With its potential for increased side effects, the 4-hour treatment should be reserved for severe premalignant cases only.

[2] = tested on: skin of patients (keratoses, sun damage, rosacea, melasma, wrinkles); experiment: Treatment of patients with PDT/IPL/RF after ALA application; format: in vivo, human
Protocol: Four patients were treated with a combination of PDT, IPL, and RF. ALA was applied to the patients at time 0.
Patient 1 received one PDT/RF/IPL peel treatment at full energy (26 J) 4 hours after application of ALA.
Patients 2, 3, and 4 received four sessions of PDT/RF/IPL photofacial treatments at full energy (26 J) 1 hour after application of ALA.

[3] = Patient 1, one PDT/RF/IPL peel treatment at 26 J, 4 hours after ALA

Structure (SMILES): NCC(=O)CCC(=O)O [ALA, 5-aminolevulinic acid]
- efficacy of PDT/IPL/RF versus standard IPL/RF alone ([1]; PDT/IPL/RF applied 15 minutes after ALA application, IPL 26 J, human test subject): no more efficacious than standard IPL/RF alone
- efficacy of PDT/IPL/RF over RF alone ([1]; PDT/IPL/RF applied 30 minutes after ALA application, IPL 26 J): minimal increase in efficacy
- efficacy of PDT/IPL/RF over RF alone ([1]; PDT/IPL/RF applied 45 minutes after ALA application, IPL 26 J): minimal increase in efficacy
- efficacy of PDT/IPL/RF ([1]; PDT/IPL/RF applied 1 hour after ALA application, IPL 26 J): noticeable increase in efficacy
- efficacy of PDT/IPL/RF ([1]; PDT/IPL/RF applied 2 hours after ALA application, IPL 26 J): noticeable increase in efficacy
- efficacy of PDT/IPL/RF ([1]; PDT/IPL/RF applied 4 hours after ALA application, IPL 26 J): largest increase of any point in time
- efficacy of PDT/IPL/RF ([1]; PDT/IPL/RF applied 5 hours after ALA application, IPL 26 J): leveled off
- efficacy of PDT/IPL/RF ([1]; PDT/IPL/RF applied 6 hours after ALA application, IPL 26 J): leveled off
- ALA treatment time required for significant efficacy of PDT/IPL/RF ([1]; human test subject): 4 h
- effect on lentigines ([2]; 4-hour treatment, Patient 1): selective destruction of lentigines
- effect on atypia and keratoses [2, 3]: significant darkening and slough of atypia and keratoses
- effect on wrinkles [2, 3]: diminution of wrinkles
- skin rejuvenation [2, 3]: generalized skin rejuvenation
- effect on sun damage, rosacea, and melasma ([2]; Patients 2, 3 and 4, four sessions PDT/RF/IPL photofacial at 26 J, 1 hour after ALA): decrease in sun damage, rosacea, and melasma
